Legend:
[1] = test system: Japanese patients with advanced solid tumors; experiment: Adverse events by CTCAE version 3.0, Phase I dose-escalation study; type: in vivo, human
[2] = test system: Western patients with solid tumors; conditions: cited from earlier work
[3] = all doses 10-25 mg, 18 patients

Cc1ccc(C(=O)N(CCCN)C(c2nc3snc(C)c3c(=O)n2Cc2ccccc2)C(C)C)cc1 (stereo not drawn) [AZD4877]
Nausea, CTCAE any grade, patients with AEs ([1]; 15 mg (N = 3)): 1 (33) N (%)
Neutropenia, patients with CTCAE grade ≥3 event ([1]; 15 mg (N = 3)): 0 N (%)
Pyrexia, CTCAE any grade, patients with AEs ([1]; 15 mg (N = 3)): 3 (100) N (%)
Rash, CTCAE any grade, patients with AEs ([1]; 15 mg (N = 3)): 3 (100) N (%)
Urinary tract infection, patients with CTCAE grade ≥3 event ([1]; 15 mg (N = 3)): 0 N (%)
Anorexia, patients with CTCAE grade ≥3 event ([1]; 20 mg (N = 6)): 0 N (%)
Any grade ≥3 event, patients with CTCAE grade ≥3 event ([1]; 20 mg (N = 6)): 1 (17) N (%)
Constipation, CTCAE any grade, patients with AEs ([1]; 20 mg (N = 6)): 1 (17) N (%)
Constipation, patients with CTCAE grade ≥3 event ([1]; 20 mg (N = 6)): 0 N (%)
Diarrhea, CTCAE any grade, patients with AEs ([1]; 20 mg (N = 6)): 0 N (%)
Dizziness, CTCAE any grade, patients with AEs ([1]; 20 mg (N = 6)): 3 (50) N (%)
Fatigue, CTCAE any grade, patients with AEs ([1]; 20 mg (N = 6)): 2 (33) N (%)
Fatigue, patients with CTCAE grade ≥3 event ([1]; 20 mg (N = 6)): 0 N (%)
Febrile neutropenia, patients with CTCAE grade ≥3 event ([1]; 20 mg (N = 6)): 0 N (%)
Insomnia, CTCAE any grade, patients with AEs ([1]; 20 mg (N = 6)): 2 (33) N (%)
Nasopharyngitis, CTCAE any grade, patients with AEs ([1]; 20 mg (N = 6)): 2 (33) N (%)
Nausea, CTCAE any grade, patients with AEs ([1]; 20 mg (N = 6)): 1 (17) N (%)
Neutropenia, patients with CTCAE grade ≥3 event ([1]; 20 mg (N = 6)): 1 (17) N (%)
Pyrexia, CTCAE any grade, patients with AEs ([1]; 20 mg (N = 6)): 2 (33) N (%)
Rash, CTCAE any grade, patients with AEs ([1]; 20 mg (N = 6)): 2 (33) N (%)
Urinary tract infection, patients with CTCAE grade ≥3 event ([1]; 20 mg (N = 6)): 0 N (%)
Patients who withdrew from the study due to an AE ([1]; 20 mg dose cohort, grade 2 cystitis): one patient
Anorexia, patients with CTCAE grade ≥3 event ([1]; 25 mg (N = 6)): 1 (17) N (%)
Any grade ≥3 event, patients with CTCAE grade ≥3 event ([1]; 25 mg (N = 6)): 2 (33) N (%)
Constipation, CTCAE any grade, patients with AEs ([1]; 25 mg (N = 6)): 2 (33) N (%)
Constipation, patients with CTCAE grade ≥3 event ([1]; 25 mg (N = 6)): 1 (17) N (%)
Diarrhea, CTCAE any grade, patients with AEs ([1]; 25 mg (N = 6)): 2 (33) N (%)
Dizziness, CTCAE any grade, patients with AEs ([1]; 25 mg (N = 6)): 0 N (%)
Fatigue, CTCAE any grade, patients with AEs ([1]; 25 mg (N = 6)): 3 (50) N (%)
Fatigue, patients with CTCAE grade ≥3 event ([1]; 25 mg (N = 6)): 1 (17) N (%)
Febrile neutropenia, patients with CTCAE grade ≥3 event ([1]; 25 mg (N = 6)): 1 (17) N (%)
Insomnia, CTCAE any grade, patients with AEs ([1]; 25 mg (N = 6)): 1 (17) N (%)
Nasopharyngitis, CTCAE any grade, patients with AEs ([1]; 25 mg (N = 6)): 2 (33) N (%)
Nausea, CTCAE any grade, patients with AEs ([1]; 25 mg (N = 6)): 3 (50) N (%)
Neutropenia, patients with CTCAE grade ≥3 event ([1]; 25 mg (N = 6)): 0 N (%)
Pyrexia, CTCAE any grade, patients with AEs ([1]; 25 mg (N = 6)): 1 (17) N (%)
Rash, CTCAE any grade, patients with AEs ([1]; 25 mg (N = 6)): 0 N (%)
Urinary tract infection, patients with CTCAE grade ≥3 event ([1]; 25 mg (N = 6)): 1 (17) N (%)
Anorexia, patients with CTCAE grade ≥3 event ([1]; Total, all doses (N = 18)): 1 (6) N (%)
Any grade ≥3 event, patients with CTCAE grade ≥3 event ([1]; Total, all doses (N = 18)): 3 (17) N (%)
Constipation, CTCAE any grade, patients with AEs ([1]; Total, all doses (N = 18)): 4 (22) N (%)
Constipation, patients with CTCAE grade ≥3 event ([1]; Total, all doses (N = 18)): 1 (6) N (%)
Diarrhea, CTCAE any grade, patients with AEs ([1]; Total, all doses (N = 18)): 5 (28) N (%)
Dizziness, CTCAE any grade, patients with AEs ([1]; Total, all doses (N = 18)): 5 (28) N (%)
Fatigue, CTCAE any grade, patients with AEs ([1]; Total, all doses (N = 18)): 7 (39) N (%)
Fatigue, patients with CTCAE grade ≥3 event ([1]; Total, all doses (N = 18)): 1 (6) N (%)
Febrile neutropenia, patients with CTCAE grade ≥3 event ([1]; Total, all doses (N = 18)): 1 (6) N (%)
Insomnia, CTCAE any grade, patients with AEs ([1]; Total, all doses (N = 18)): 4 (22) N (%)
Nasopharyngitis, CTCAE any grade, patients with AEs ([1]; Total, all doses (N = 18)): 4 (22) N (%)
Nausea, CTCAE any grade, patients with AEs ([1]; Total, all doses (N = 18)): 7 (39) N (%)
Neutropenia, patients with CTCAE grade ≥3 event ([1]; Total, all doses (N = 18)): 1 (6) N (%)
Pyrexia, CTCAE any grade, patients with AEs ([1]; Total, all doses (N = 18)): 6 (33) N (%)
Rash, CTCAE any grade, patients with AEs ([1]; Total, all doses (N = 18)): 5 (28) N (%)
Urinary tract infection, patients with CTCAE grade ≥3 event ([1]; Total, all doses (N = 18)): 1 (6) N (%)
Deaths during the study ([1]; all doses 10-25 mg): no deaths
Patients reporting fatigue (AE) [1, 3]: 39%
Patients reporting nausea (AE) [1, 3]: 39%
Patients reporting pyrexia (AE) [1, 3]: 33%
Patients who experienced at least one AE [1, 3]: All patients
Patients who experienced CTCAE grade ≥3 events ([1]; all doses, 18 patients, one in 20 mg, two in 25 mg cohort): Three
Tolerability ([1]; doses up to 25 mg weekly): generally well tolerated
Monoaster formation (proof of mechanism) ([2]; 25 mg, clinical setting): evidence of monoaster formation
Tolerability in Western patients ([2]; 25 mg): acceptable tolerability profile
Toxicity at 30 mg ([2]; 30 mg, parallel US study): experienced neutropenia
Recommended dose for further evaluation ([2]; parallel US study): 25 mg
Best objective tumor response in Western patients ([2]; weekly treatment): stable disease ≥12 weeks
